The text below walks through data of a melting point compilation (Tetko et al.; mined from patent text by program, amines drawn as free bases though some values may be those of a salt).

The structures appear in SMILES notation.

Consider `CC(C)(C)OC(=O)C(N)CCNC(=O)c1ccc2c(c1)C(=O)c1ccccc1C2=O` (stereo not given), for which the melting point lay in the range of 173 to 175 °C.

Compound `Clc1cc(Cl)c2nc[nH]c2n1` gave a melting point of 263 °C.

Consider `CCOC(=O)c1ncc2[nH]c3ccc(Oc4ccc(Br)cn4)cc3c2c1COC`, for which the melting point is 210 to 212 °C.

Take `NS(=O)(=O)c1ccc(-c2noc(-c3cnn4c(C5CC5)cc(-c5ccc(Cl)cc5)nc34)n2)cc1`: the melting point came to 260 °C.

In the case of `COC(=O)c1ccc(C(=O)OC)c(SCc2ccccc2)c1`, the melting point was in the range of 90 to 93.5 °C.

For the compound `CNC(=O)Cc1ccc(O)cc1`, the melting point is 124 to 125 °C.

Consider `CC(C)/[N+]([O-])=C/c1ccc(O)cc1O`, for which the melting point is 155 to 157 °C.

Take `Nc1sc2c(c1C(=O)c1ccc3ccccc3c1)CCC(Cc1ccc([N+](=O)[O-])cc1)C2` (stereo not given): the melting point lay within 76 to 78 °C.

Regarding `CC(=O)Nc1ccc(-c2ccc(C(O)CCC(=O)O)cc2)cc1Br` (stereo not given), the melting point was in the range of 125 to 126 °C.

In the case of `Cc1cc(C)c(C=O)c(O)c1C`, the melting point lay in the range of 74 to 75.5 °C.

Take `CCOC(=O)c1ccc(-c2cnc3c(c2)N(C(=O)c2ccccc2)CCN3)cc1`: the melting point lay within 177 to 178 °C.

For `CCC(C)NC(=O)c1nc2cnn(CC)c2nc1-c1ccccc1` (stereo not given), the melting point lay in the range of 150 to 151 °C.

The compound `CS(=O)(=O)c1ccc(-c2nn(CC3CC3)c(=O)cc2-c2ccc(F)cc2)cc1` had a melting point of 124 °C.

As for `COc1nc(NCCCN2CCOCC2)nc(OC)c1NC(=O)c1ccc(Oc2cncc([Si](C)(C)C)c2)o1`, the melting point is 80 to 82 °C.

In turn, `O=c1[nH]c(=O)c2ccsc2[nH]1` yielded a melting point above 300 °C.

`O=C(O)C1=Cc2cc(Cl)cc(COCc3ccccc3)c2OC1C(F)(F)F` (stereo not given) registered a melting point of 134 to 135 °C.

In turn, `O=C1c2cccc(O)c2C(=O)N1CC(=O)N1c2ccccc2N(Cc2ccccc2)C(=O)[C@H]2CCC[C@H]21` (relative stereo) yielded a melting point of 272 °C.

Compound `Cc1nc2c(Cc3ccccc3)cnn2c(=O)[nH]1` had a melting point of 225 °C.

For `COc1ccc(-c2nc3c(F)cccc3s2)cc1OC`, the melting point was determined as 129 °C.

`CC(=O)C1(C(=O)N[C@H](C)c2ccccc2)CCC1`: the melting point fell in the range of 57 to 60 °C.

Consider `CC(C)(C)OC(=O)c1ncn2c1[C@@H]1CCCN1C(=O)c1c-2cccc1S(C)(=O)=O`, for which the melting point worked out at 244 °C.

`CC(C)(C)OC(=O)N[C@@H](COCc1ccccc1)C(=O)N[C@H](CCC(=O)OCc1ccccc1)C(N)=O` yielded a melting point of 65 to 66 °C.

Compound `CC(=O)C=Cc1ccc(Cl)c(Cl)c1` showed a melting point of 53 to 55 °C.

In the case of `CCOC(=O)c1n[nH]c(C)c1Cl`, the melting point was 106 to 107 °C.

For the compound `CON=CCN1C(=O)C(NC(=O)c2cc3ccccc3[nH]2)N=C(c2ccccc2)c2ccccc21` (racemic), the melting point fell in the range of 169 to 174 °C.

`OC1(c2ccc3c(c2)OCO3)CCC2(CC1)OCCO2`: the melting point was in the range of 95 to 96 °C.

On to `O=C(c1ccc(-c2ccccc2)cc1)N1Cc2ccc(C(=O)C(Cl)(Cl)Cl)n2Cc2ccccc21`, for which the melting point lay in the range of 197 to 198 °C.

`Nc1cc(Cl)cnc1F` showed a melting point of 74 °C.

In turn, `Cc1ccccc1C(=O)Nc1ccc(C(=O)N2CCCC(N(C)S(C)(=O)=O)c3ccccc32)cc1` (stereo not given) gave a melting point of 197 to 198 °C.

Compound `NC(=O)N(O)Cc1ccc(OCc2ccccc2)cc1` gave a melting point of 147 to 149 °C.

Turning to `Cc1cc(CCCCCCCc2ccc(C3=NCCO3)cc2)on1`, the melting point lay in the range of 66 to 67 °C.

Regarding `CC(C)Nc1cccnc1N1CCN(C(=O)c2ccc(C(=O)N(CCO)Cc3ccccc3)cc2)CC1`, the melting point fell in the range of 99 to 101 °C.

Take `CN(C)C=CC(=O)c1cccc(C(F)(F)F)c1`: the melting point is 60.5 to 62 °C.

The compound `Nc1[nH]ncc1-c1nc(-c2ccco2)n[nH]1` registered a melting point of 175 to 176 °C.

With `CC(CCCc1ccc(F)cc1)c1cc(NC(N)=O)c2c(c1)OC(C)(C)c1ccncc1-2` (stereo not given), the melting point was 179 to 181 °C.
